The values below come from PMC5474940 (Biochemistry, 2017).

The subject of this experiment is AcOSα-PaFSα. It is filed as biochemical, Aspergillus clavatus. The note with it: read-out: AcOSα-PaFSα; labelled compound; 25 mM HEPES pH 8.0, 200 mM NaCl, 5 mM MgCl2, 30 °C; cyclase domain.

Take `CC(C)=CCC/C(C)=C/CC/C(C)=C/CC/C(C)=C/COP(=O)(O)OP(=O)(O)O` [GGPP]: the Km was found to be 0.038 ± 0.01 µM.
